Test results reported in ChEMBL document CHEMBL3217647, “Prospective use of molecular field points in ligand-based virtual screening: efficient identification of new reversible Cdc25 inhibitors” (Medchemcomm, 2013).

Experiments:
[1] = biological target: T1, Dual specificity protein phosphatase 3 (Homo sapiens, UniProt P51452); assay: Inhibition of human His-tagged VHR phosphatase activity assessed as fluorescence by BMG plate reader in the absence of detergent
[2] = biological target: T2, M-phase inducer phosphatase 3 (Homo sapiens, UniProt P30307); assay: Inhibition of Cdc25C (unknown origin) phosphatase activity assessed as fluorescence by BMG plate reader in the absence of detergent
T2 sequence (P30307 whole entry): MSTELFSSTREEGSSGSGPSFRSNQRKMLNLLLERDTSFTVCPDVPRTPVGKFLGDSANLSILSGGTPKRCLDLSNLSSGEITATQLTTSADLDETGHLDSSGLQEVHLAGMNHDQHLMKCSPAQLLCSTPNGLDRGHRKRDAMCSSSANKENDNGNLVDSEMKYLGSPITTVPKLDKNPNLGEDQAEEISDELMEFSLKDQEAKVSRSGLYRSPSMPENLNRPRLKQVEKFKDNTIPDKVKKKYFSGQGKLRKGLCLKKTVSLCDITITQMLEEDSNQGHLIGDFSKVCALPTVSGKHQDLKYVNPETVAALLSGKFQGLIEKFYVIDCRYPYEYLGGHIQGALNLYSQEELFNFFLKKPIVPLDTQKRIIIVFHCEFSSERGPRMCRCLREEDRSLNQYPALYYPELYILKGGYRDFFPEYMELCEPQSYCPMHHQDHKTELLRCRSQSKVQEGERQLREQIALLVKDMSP

[3] = biological target: T3, M-phase inducer phosphatase 2 (Homo sapiens, UniProt P30305); assay: Inhibition of Cdc25B (unknown origin) phosphatase activity assessed as fluorescence by BMG plate reader in the absence of detergent
T3 sequence (P30305 whole entry): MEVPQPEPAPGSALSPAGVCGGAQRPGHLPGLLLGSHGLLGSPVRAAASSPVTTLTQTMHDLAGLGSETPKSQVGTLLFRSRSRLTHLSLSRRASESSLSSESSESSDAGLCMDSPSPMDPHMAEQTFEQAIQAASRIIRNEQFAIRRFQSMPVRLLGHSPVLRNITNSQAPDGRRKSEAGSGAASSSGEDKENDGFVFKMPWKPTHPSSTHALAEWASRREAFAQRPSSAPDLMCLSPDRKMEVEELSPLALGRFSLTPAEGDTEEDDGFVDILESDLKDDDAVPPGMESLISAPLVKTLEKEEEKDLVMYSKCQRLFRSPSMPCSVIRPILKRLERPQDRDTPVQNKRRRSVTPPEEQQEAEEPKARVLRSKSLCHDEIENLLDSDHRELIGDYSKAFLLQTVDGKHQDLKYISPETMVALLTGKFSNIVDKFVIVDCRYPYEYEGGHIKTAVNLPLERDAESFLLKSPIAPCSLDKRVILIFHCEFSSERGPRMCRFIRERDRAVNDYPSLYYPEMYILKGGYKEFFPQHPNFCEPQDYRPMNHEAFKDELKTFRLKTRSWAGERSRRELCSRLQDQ

[4] = biological target: T4, M-phase inducer phosphatase 1 (Homo sapiens, UniProt P30304); assay: Inhibition of Cdc25A (unknown origin) phosphatase activity assessed as fluorescence by BMG plate reader in the absence of detergent
T4 sequence (P30304 whole entry): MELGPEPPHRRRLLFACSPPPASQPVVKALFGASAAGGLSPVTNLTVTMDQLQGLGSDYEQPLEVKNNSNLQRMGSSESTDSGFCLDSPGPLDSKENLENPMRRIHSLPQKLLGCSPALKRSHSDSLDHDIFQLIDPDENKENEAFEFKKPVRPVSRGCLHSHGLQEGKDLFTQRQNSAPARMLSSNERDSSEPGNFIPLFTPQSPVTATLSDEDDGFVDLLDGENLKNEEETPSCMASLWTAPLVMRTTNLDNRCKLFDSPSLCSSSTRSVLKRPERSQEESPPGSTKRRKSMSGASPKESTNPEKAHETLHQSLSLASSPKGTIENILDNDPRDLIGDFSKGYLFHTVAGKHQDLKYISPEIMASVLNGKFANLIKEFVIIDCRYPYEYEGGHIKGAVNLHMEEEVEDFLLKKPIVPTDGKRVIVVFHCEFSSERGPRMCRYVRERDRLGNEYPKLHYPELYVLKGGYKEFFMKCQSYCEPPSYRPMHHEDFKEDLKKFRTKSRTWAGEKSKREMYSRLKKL

[5] = organism: Homo sapiens; assay: Inhibition of alkaline phosphatase (unknown origin) phosphatase activity assessed as fluorescence at 100 uM by BMG plate reader in the presence of 0.005% Tween-20
[6] = organism: Homo sapiens; assay: Inhibition of MKP-5/p38 (unknown origin) phosphatase activity assessed as fluorescence at 100 uM by BMG plate reader in the presence of 0.005% Tween-20
[7] = biological target: T1, Dual specificity protein phosphatase 3; assay: Inhibition of human His-tagged VHR phosphatase activity assessed as fluorescence by BMG plate reader in the presence of 0.005% Tween-20
[8] = biological target: T2, M-phase inducer phosphatase 3; assay: Inhibition of Cdc25C (unknown origin) phosphatase activity assessed as fluorescence by BMG plate reader in the presence of 0.005% Tween-20
[9] = biological target: T3, M-phase inducer phosphatase 2; assay: Inhibition of Cdc25B (unknown origin) phosphatase activity assessed as fluorescence by BMG plate reader in the presence of 0.005% Tween-20
[10] = biological target: T4, M-phase inducer phosphatase 1; assay: Inhibition of Cdc25A (unknown origin) phosphatase activity assessed as fluorescence by BMG plate reader in the presence of 0.005% Tween-20
[11] = biological target: T5, Tyrosine-protein phosphatase non-receptor type 1 (Homo sapiens) (UniProt P18031); assay: Inhibition of PTP1B (unknown origin) phosphatase activity assessed as fluorescence at 100 uM by BMG plate reader in the presence of 0.005% Tween-20
T5 sequence (whole entry): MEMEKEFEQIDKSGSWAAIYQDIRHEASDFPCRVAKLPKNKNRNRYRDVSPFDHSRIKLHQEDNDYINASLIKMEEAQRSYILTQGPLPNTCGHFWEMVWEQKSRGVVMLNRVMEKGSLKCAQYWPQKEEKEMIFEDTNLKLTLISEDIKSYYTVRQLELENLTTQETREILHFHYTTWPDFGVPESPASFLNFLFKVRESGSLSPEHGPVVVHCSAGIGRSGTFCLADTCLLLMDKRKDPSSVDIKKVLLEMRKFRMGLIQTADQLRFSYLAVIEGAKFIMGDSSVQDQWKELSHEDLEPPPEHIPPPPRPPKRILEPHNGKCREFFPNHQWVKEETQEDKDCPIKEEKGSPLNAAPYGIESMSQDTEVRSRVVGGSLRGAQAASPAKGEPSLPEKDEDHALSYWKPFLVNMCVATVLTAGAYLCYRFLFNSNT

T1 sequence (P51452 whole entry): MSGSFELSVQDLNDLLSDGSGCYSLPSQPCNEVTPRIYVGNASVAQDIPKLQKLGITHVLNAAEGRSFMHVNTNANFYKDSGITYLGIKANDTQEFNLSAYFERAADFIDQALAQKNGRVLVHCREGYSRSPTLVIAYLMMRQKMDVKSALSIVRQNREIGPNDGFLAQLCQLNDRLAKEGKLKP

SMILES	IC50 [1] [µM]	IC50 [2] [µM]	IC50 [3] [µM]	IC50 [4] [µM]	inhibition [5] [%]	inhibition [6] [%]	IC50 [7] [µM]	IC50 [8] [µM]	IC50 [9] [µM]	IC50 [10] [µM]	inhibition [11] [%]
CCOc1ccc(-c2nc(-c3ccc4[nH]c(=O)[nH]c4c3)cs2)cc1	1.9	10.2	8.9	2.4	< 50	< 50	20.1	47.3	17.9	23.6	< 50
CCOc1ccc(-c2nc(-c3ccc4c(c3)CC(=O)N4C)cs2)cc1	10.6	> 100	22.7	9.5	< 50	< 50	64.5	47.6	50	33.6	< 50
COc1ccc(-c2nc(-c3cc(C)n(CC4CCCO4)c3C)cs2)cc1 (configuration not stated)	8.3	24.7	12.1	6.4	< 50	< 50	33.3	> 100	23.6	31.1	< 50
COc1ccc(-c2nc(-c3ccc4c(c3)CCN4S(C)(=O)=O)cs2)cc1	8.1	18	17.5	6.5	< 50	< 50	45.4	42.5	26.1	42.9	< 50
COc1ccc(-c2nc(C(=O)Nc3ccc[nH]c3=O)cs2)cc1	–	–	–	–	–	–	> 100	–	6.8	17.5	–
O=c1[nH]c2cc(S(=O)(=O)Nc3cccc(-c4csc(-c5ccccc5)n4)c3)ccc2o1	–	–	–	–	–	–	34.8	44.4	3.5	2.2	–
Cc1cccc(-c2nc(-c3ccc4c(c3)CCN4S(C)(=O)=O)cs2)c1	8	24.3	19	5.6	< 50	< 50	40.1	37.8	34.4	31.8	< 50
O=C(Nc1cccc(-c2csc(-c3ccccc3)n2)c1)c1ccco1	26.1	> 100	> 100	17.8	–	–	> 100	> 100	> 100	> 100	–
COc1ccccc1-c1nc(-c2ccc3c(c2)CCN3S(C)(=O)=O)cs1	2.7	14.2	10.1	4	< 50	< 50	40.2	42.6	31.3	41.7	< 50
CCOC(=O)C1=C(C)N=c2s/c(=C\c3ccc(O)cc3)c(=O)n2C1c1ccc2c(c1)OCO2 (configuration not stated)	–	–	–	–	–	–	–	–	13	–	–
O=C(Nc1nc(-c2ccc(F)cc2)cs1)c1cnccn1	–	–	–	–	–	–	> 100	40	16	25.7	–
COc1ccc(-c2nc(-c3cnc(N)nc3)cs2)cc1	–	–	–	–	–	–	> 100	> 100	19.7	25	–
CCOc1ccc(-c2nc(-c3ccc4ccccc4c3)cs2)cc1	4.4	31.5	13.6	13	< 50	< 50	61	71.5	> 100	30	< 50
COc1ccc(-c2csc(-c3cccc(NC(=O)C4CC4)c3)n2)cc1	8.9	16.8	14.9	10.2	–	–	> 100	42.2	> 100	> 100	–

Next, values leading:

IC50 [1] [µM]	IC50 [2] [µM]	IC50 [3] [µM]	IC50 [4] [µM]	inhibition [5] [%]	inhibition [6] [%]	IC50 [7] [µM]	IC50 [8] [µM]	IC50 [9] [µM]	IC50 [10] [µM]	inhibition [11] [%]	SMILES
–	–	–	–	–	–	17	8.2	0.9	20.1	–	O=C(CCC(=O)Nc1nc(-c2cc3ccccc3oc2=O)cs1)NCc1ccc2c(c1)OCO2
–	–	–	–	–	–	26	9.7	1.7	2.7	–	O=S(=O)(Cc1ccco1)Cc1nc(-c2ccc(-c3ccccc3)cc2)cs1
–	–	–	–	–	–	24.9	9.4	5.9	12.3	–	O=C(CCC(=O)NC1CCCC1)Nc1nc(-c2cc3ccccc3oc2=O)cs1
–	–	–	–	–	–	65.7	11	2.69	7.5	–	O=C(/C=C/c1ccc2c(c1)OCO2)Nc1nc(-c2ccc(F)cc2F)cs1
–	–	–	–	–	–	–	–	2	–	–	CCOc1ccc(-c2nn(-c3ccccc3)cc2/C=C2\SC(=O)N(C)C2=O)cc1Br
–	–	–	–	–	–	> 100	8.8	3.1	12.2	–	N#Cc1ccc(-c2csc(-c3ccc(-c4csnn4)cc3)n2)cc1
–	–	–	–	–	–	–	5	5	5	–	O=C1C(=O)c2c(C(=O)c3ccccc3)coc2-c2ccccc21
–	–	–	–	–	–	> 100	8.6	4.2	6.9	–	O=C(Nc1cccc(-c2csc(-c3ccccc3)n2)c1)c1cccc(=O)[nH]1
